Assay: Binding affinity to LPS by fluorescence-based displacement assay

## CCCCCCCCCCCCS(=O)(=O)NCCCNCCCCNCCCN
  ED50: 3 µM

## CCCCS(=O)(=O)NCCCNCCCCNCCCN
  ED50: > 10000 µM

## CCCCCCCCCCCCCCCCS(=O)(=O)NCCCNCCCCNCCCN
  ED50: 2 µM

## NCCCNCCCCNCCCNS(=O)(=O)c1ccc(Cl)c(Cl)c1Cl
  ED50: 9 µM

## CCCCCCCCCCS(=O)(=O)NCCCNCCCCNCCCN
  ED50: 3 µM

## CC1(C)C2CCC1(CS(=O)(=O)NCCCNCCCCNCCCN)C(=O)C2 (centres undefined)
  ED50: 1680 µM

## CCCCCCCCCCCCCCCCCCS(=O)(=O)NCCCNCCCCNCCCN
  ED50: 6 µM

## CCCCCCCCS(=O)(=O)NCCCNCCCCNCCCN
  ED50: 5 µM

## NCCCNCCCCNCCCNS(=O)(=O)c1cc(Cl)c(Cl)cc1Cl
  ED50: 19 µM

## NCCCNCCCCNCCCNS(=O)(=O)c1ccccc1
  ED50: 2960 µM

## CC(C)(C)c1ccc(S(=O)(=O)NCCCNCCCCNCCCN)cc1
  ED50: 25 µM

## NCCCNCCCCNCCCNS(=O)(=O)c1cccc2ccccc12
  ED50: 34 µM

## NCCCNCCCCNCCCNS(=O)(=O)c1ccc(C(F)(F)F)cc1
  ED50: 884 µM

## CCCCOc1ccc(CC(C)(C)C)cc1S(=O)(=O)NCCCNCCCCNCCCN
  ED50: 4 µM

## NCCCNCCCCNCCCNS(=O)(=O)c1ccc(Cl)c(C(F)(F)F)c1
  ED50: 21 µM

## NCCCNCCCCNCCCNS(=O)(=O)c1cccc2cccnc12
  ED50: 4880 µM

## NCCCNCCCCNCCCNS(=O)(=O)c1ccc(Cl)cc1Cl
  ED50: 56 µM

## NCCCNCCCCNCCCNS(=O)(=O)c1ccc(Cl)cc1
  ED50: 158 µM

## NCCCNCCCCNCCCNS(=O)(=O)c1ccc(Br)cc1Br
  ED50: 2110 µM

Source: ChEMBL document CHEMBL1146167, “Structural correlation between lipophilicity and lipopolysaccharide-sequestering activity in spermine-sulfonamide analogs” (Bioorg Med Chem Lett, 2006)
